Like-named read-outs stand apart in the source and are kept apart here.
Experiments:
[1] = target: CDK7/Cyclin H/MAT1 complex (Homo sapiens, UniProt P50613); assay: CDK7 inhibition assay (Caliper/LabChip EZ Reader kinase assay); assay type: biochemical; conditions: Table 1; CDK7/Cyclin H/MAT1 6 nM, ATP 2 mM, 35 min at 27° C.
Procedure: (§1) Compounds of the invention were assayed for inhibition of CDK7, CDK9, CDK12, and CDK2 activity at Biortus Biosciences (Jiangyin, Jiangsu Province, P.R. of China) using kinase assays for each CDK developed with a Caliper/LabChip EZ Reader (Perkin Elmer, Waltham, MA).
(§2) Furthermore, the CDK9 inhibition assay used CDK9/Cyclin T1 complex (8 nM) and “5-FAM-CDK9tide” peptide substrate (2 μM, synthesized fluorophore-labeled peptide with the following sequence: 5-FAM-GSRTPMY-NH2 where 5-FAM is defined above and NH2 signifies a C-terminal amide) with 10 mM MgCl2 in the buffer composition listed above. […] Additionally, the CDK2 inhibition assay used CDK2/Cyclin E1 complex (0.5 nM) and “5-FAM-CDK7tide” ([…]) as defined above, with 2 mM MgCl2 in the buffer composition listed above.

CDK9/Cyclin T1 complex = CDK9/Cyclin T1 complex (Homo sapiens, UniProt P50750); assay: CDK9 inhibition assay (Caliper/LabChip EZ Reader kinase assay); assay type: biochemical; conditions: Table 1; CDK9/Cyclin T1 8 nM, ATP 2 mM, 15 min at 27° C.
Procedure: as §1, §2

[2] = target: T1, CDK12 (aa686-1082)/Cyclin K complex (Homo sapiens, UniProt Q9NYV4); assay: CDK12 inhibition assay (Caliper/LabChip EZ Reader kinase assay); assay type: biochemical; conditions: Table 1; CDK12 (aa686-1082)/Cyclin K 50 nM, ATP 2 mM, 3 hr at 27° C.
T1 construct: CDK12 (aa686-1082)/Cyclin K complex
Procedure: as §1, §2

CDK2/Cyclin E1 complex = CDK2/Cyclin E1 complex (Homo sapiens, UniProt P24941); assay: CDK2 inhibition assay (Caliper/LabChip EZ Reader kinase assay); assay type: biochemical; conditions: Table 1; CDK2/Cyclin E1 0.5 nM, ATP 2 mM, 35 min at 27° C.
Procedure: as §1, §2

A673 cells = assay: Inhibition of proliferation of A673 cells (CyQUANT, 72 hour); assay type: cell-based, human; conditions: A673 cells, 72 hour, CyQUANT, read-out: Inhibition of Proliferation of A673 Cells (calculated IC50)
Procedure: A673 cells are a cell line derived from human […] Ewing's sarcoma. Representative compounds of the invention were tested at different concentrations (from […]; 0.5 log serial dilutions) for their ability to inhibit the proliferation of A673 cells. Known CDK inhibitors dinaciclib or N-((1S,3R)-3-((5-chloro-4-(1H-indol-3-yl)pyrimidin-2-yl)amino)cyclohexyl)-5-((E)-4-(dimethylamino)but-2-enamido)picolinamide and triptolide were used as positive controls. Cells were grown in Dulbecco's Modified Eagle's Medium, +10% FBS+1 mM Sodium Pyruvate. The cells were cultured at 37° C. in a humidified chamber in the presence of 5% CO2. Proliferation assays were conducted over a 72 hour time period. CyQUANT® (Life Technologies, Chicago, IL USA) was used to assess the anti-proliferative effects of the compounds following manufacturer's directions and utilizing the reagents supplied with the CyQUANT® kit.

Chain of CDK9/Cyclin T1 complex (P50750 whole entry, species assumed): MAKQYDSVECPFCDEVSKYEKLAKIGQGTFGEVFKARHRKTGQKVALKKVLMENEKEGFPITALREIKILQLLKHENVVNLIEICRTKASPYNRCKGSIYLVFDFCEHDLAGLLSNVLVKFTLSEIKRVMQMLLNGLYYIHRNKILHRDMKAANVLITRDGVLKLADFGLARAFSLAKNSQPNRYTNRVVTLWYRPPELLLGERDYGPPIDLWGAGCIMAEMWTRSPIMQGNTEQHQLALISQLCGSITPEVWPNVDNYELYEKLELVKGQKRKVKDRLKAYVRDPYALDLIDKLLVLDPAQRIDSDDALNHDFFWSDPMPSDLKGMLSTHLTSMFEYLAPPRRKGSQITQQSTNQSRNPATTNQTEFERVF
Chain of CDK9/Cyclin T1 complex (O60563 whole entry partner, species assumed): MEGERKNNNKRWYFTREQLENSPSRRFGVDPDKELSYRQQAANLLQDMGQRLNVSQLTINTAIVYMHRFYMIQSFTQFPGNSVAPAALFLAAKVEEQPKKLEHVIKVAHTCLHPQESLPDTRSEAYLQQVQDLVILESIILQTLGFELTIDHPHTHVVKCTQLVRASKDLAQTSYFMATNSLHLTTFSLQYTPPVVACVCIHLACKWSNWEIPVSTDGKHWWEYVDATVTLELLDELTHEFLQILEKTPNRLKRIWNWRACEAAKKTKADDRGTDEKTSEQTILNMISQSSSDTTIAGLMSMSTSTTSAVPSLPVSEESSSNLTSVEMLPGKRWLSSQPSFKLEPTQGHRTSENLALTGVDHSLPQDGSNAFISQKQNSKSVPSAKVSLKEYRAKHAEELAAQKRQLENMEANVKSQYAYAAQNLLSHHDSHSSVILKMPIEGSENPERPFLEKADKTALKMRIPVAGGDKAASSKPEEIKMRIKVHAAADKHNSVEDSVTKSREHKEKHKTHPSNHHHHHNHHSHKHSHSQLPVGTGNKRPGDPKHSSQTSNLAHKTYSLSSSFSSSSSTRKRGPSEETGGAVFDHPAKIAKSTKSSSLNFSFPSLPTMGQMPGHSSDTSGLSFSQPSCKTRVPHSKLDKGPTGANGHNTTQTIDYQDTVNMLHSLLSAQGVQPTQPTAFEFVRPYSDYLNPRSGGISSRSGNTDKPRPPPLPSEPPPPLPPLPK
Chain of CDK7/Cyclin H/MAT1 complex (P50613 whole entry, species assumed): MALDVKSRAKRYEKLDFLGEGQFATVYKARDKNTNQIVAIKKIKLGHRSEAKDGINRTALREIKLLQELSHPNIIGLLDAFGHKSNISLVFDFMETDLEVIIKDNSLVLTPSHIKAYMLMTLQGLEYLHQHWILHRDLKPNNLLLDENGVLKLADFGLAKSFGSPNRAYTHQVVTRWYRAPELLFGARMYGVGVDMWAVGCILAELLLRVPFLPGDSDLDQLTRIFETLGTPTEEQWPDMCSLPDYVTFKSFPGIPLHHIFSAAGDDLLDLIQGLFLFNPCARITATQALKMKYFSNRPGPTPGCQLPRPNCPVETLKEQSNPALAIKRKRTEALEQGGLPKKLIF
Chain of CDK7/Cyclin H/MAT1 complex (P51946 whole entry partner, species assumed): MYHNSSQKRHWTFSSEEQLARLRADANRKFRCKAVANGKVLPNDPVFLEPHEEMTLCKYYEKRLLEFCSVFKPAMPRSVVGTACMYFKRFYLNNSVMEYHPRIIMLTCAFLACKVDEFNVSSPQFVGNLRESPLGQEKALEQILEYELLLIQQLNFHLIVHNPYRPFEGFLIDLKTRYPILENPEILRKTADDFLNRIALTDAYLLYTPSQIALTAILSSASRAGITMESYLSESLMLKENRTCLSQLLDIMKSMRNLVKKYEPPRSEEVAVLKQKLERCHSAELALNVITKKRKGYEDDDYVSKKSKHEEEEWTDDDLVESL
Chain of CDK7/Cyclin H/MAT1 complex (P51948 whole entry partner, species assumed): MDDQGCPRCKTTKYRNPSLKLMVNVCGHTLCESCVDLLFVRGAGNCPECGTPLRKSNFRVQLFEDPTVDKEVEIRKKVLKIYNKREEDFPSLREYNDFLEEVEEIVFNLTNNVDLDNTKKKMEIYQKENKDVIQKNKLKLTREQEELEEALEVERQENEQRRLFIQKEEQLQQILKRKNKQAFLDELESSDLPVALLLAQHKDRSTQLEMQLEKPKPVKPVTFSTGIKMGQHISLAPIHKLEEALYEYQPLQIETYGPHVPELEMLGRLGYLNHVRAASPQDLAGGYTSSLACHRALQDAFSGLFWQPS
T1 sequence (Q9NYV4 686-1082, species assumed): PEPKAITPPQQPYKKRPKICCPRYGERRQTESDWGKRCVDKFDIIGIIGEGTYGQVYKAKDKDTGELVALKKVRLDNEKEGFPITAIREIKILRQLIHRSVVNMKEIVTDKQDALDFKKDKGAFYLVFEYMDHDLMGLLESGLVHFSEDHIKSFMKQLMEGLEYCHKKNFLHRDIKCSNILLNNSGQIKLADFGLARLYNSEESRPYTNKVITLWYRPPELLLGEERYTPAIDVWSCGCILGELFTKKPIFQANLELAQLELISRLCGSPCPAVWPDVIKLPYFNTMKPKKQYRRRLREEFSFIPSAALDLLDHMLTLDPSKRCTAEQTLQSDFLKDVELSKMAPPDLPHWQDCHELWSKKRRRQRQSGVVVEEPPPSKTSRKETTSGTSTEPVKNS
T1 sequence (O75909 whole entry partner, species assumed, the tested form may be a part): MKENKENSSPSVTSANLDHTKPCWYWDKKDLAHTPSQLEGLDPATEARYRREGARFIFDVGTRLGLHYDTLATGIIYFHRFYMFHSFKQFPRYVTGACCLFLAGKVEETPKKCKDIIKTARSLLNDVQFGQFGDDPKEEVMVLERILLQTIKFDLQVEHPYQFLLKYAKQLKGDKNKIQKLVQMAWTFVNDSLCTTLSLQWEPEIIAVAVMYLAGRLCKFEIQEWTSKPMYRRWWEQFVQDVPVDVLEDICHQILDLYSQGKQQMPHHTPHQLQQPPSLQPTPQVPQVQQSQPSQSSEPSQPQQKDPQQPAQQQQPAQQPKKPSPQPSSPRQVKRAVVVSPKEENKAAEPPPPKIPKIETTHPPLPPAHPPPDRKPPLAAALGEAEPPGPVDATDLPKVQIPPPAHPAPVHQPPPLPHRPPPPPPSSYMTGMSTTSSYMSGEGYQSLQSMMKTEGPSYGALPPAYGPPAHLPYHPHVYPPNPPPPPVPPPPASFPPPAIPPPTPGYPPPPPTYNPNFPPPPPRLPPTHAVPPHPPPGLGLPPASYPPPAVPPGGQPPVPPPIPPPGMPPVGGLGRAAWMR

| SMILES | IC50 [1] | IC50 (CDK9/Cyclin T1 complex) | IC50 [2] | IC50 (CDK2/Cyclin E1 complex) | IC50 (A673 cells; Homo sapiens, A673, 72 h) | IC50 (A673 cells) |
| --- | --- | --- | --- | --- | --- | --- |
| C#Cc1cnc(N[C@H]2CCCNC2)nc1-c1c[nH]c2ccccc12 [Compound 194] | < 20 nM | 200 to 5000 nM | 200 to 5000 nM | 200 to 5000 nM | < 20 nM | – |
| Cc1c(-c2ccc3c(-c4nc(N[C@H]5CCCNC5)ncc4C(F)(F)F)c[nH]c3c2)cnn1C [Compound 227, 4-[6-(1,5-dimethylpyrazol-4-yl)-1H-indol-3-yl]-N-[(3S)-3-piperidyl]-5-(trifluoromethyl) pyrimidin-2-amine] | < 20 nM | 200 to 5000 nM | 200 to 5000 nM | 200 to 5000 nM | 20 to 200 nM | – |
| C#Cc1cnc(N[C@H]2CCCNC2)nc1-c1cn(C)c2ccccc12 [Compound 195] | 200 to 5000 nM | > 5000 nM | > 5000 nM | > 5000 nM | – | 20 to 200 nM |
| CNS(=O)(=O)c1ccc2c(-c3nc(N[C@H]4CCCNC4)ncc3C(F)(F)F)c[nH]c2c1 [Compound 200, N-methyl-3-[2-[[(3S)-3-piperidyl]amino]-5-(trifluoromethyl)pyrimidin-4-yl]-1H-indole-6-sulfonamide] | < 20 nM | 200 to 5000 nM | 200 to 5000 nM | 200 to 5000 nM | 20 to 200 nM | – |
| CC(C)(O)Cn1cc(-c2ccc3c(-c4nc(N[C@H]5CCCNC5)ncc4C(F)(F)F)c[nH]c3c2)cn1 [Compound 214, 2-methyl-1-[4-[3-[2-[[(3S)-3-piperidyl]amino]-5-(trifluoromethyl)pyrimidin-4-yl]-1H-indol-6-yl]pyrazol-1-yl] propan-2-ol] | 20 to 200 nM | 200 to 5000 nM | 200 to 5000 nM | 200 to 5000 nM | 20 to 200 nM | – |
| CCc1cnc(N[C@H]2CCCNC2)nc1-c1n[nH]c2ncccc12 [Compound 262, 5-ethyl-N-[(3S)-3-piperidyl]-4-(1H-pyrazolo[3,4-b]pyridin-3-yl)pyrimidin-2-amine] | < 20 nM | 200 to 5000 nM | 200 to 5000 nM | 200 to 5000 nM | 20 to 200 nM | – |
| FC(F)(F)c1cnc(N[C@H]2CCCNC2)nc1-c1c[nH]c2cc(-c3ccncc3)ccc12 [Compound 224, N-[(3S)-3-piperidyl]-4-[6-(4-pyridyl)-1H-indol-3-yl]-5-(trifluoromethyl) pyrimidin-2-amine] | < 20 nM | 200 to 5000 nM | 200 to 5000 nM | 200 to 5000 nM | 20 to 200 nM | – |
| CCc1cnc(N[C@H]2CCCNC2)nc1-c1n[nH]c2cc(C#N)ccc12 [Compound 275, (S)-3-(5-ethyl-2-(piperidin-3-ylamino)pyrimidin-4-yl)-1H-indazole-6-carbonitrile] | < 20 nM | 200 to 5000 nM | 200 to 5000 nM | 200 to 5000 nM | 20 to 200 nM | – |
| O[C@H]1CC[C@@H](c2cccc3c(-c4nc(N[C@H]5CCCNC5)ncc4C(F)(F)F)c[nH]c32)CC1 [Compound 207] | < 20 nM | 200 to 5000 nM | 200 to 5000 nM | 200 to 5000 nM | < 20 nM | – |
| N#Cc1cc(-c2ccc3c(-c4nc(N[C@H]5CCCNC5)ncc4C(F)(F)F)c[nH]c3c2)c[nH]1 [Compound 233, 4-[3-[2-[[(3S)-3-piperidyl]amino]-5-(trifluoromethyl)pyrimidin-4-yl]-1H-indol-6-yl]-1H-pyrrole-2-carbonitrile] | < 20 nM | 200 to 5000 nM | 200 to 5000 nM | 200 to 5000 nM | 20 to 200 nM | – |
| CC1(C)CCNC[C@H]1Nc1ncc(C(F)(F)F)c(-c2c[nH]c3ccccc23)n1 (single isomer, unassigned) [Compound 210] | 200 to 5000 nM | > 5000 nM | > 5000 nM | > 5000 nM | 200 to 5000 nM | – |
| CCc1cnc(-c2c[nH]c3ncc(F)cc23)nc1N[C@H]1CCCNC1 [Compound 231, 5-ethyl-2-(5-fluoro-1H-pyrrolo [2,3-b]pyridin-3-yl)-N-[(3S)-3-piperidyl] pyrimidin-4-amine] | > 5000 nM | > 5000 nM | > 5000 nM | > 5000 nM | 200 to 5000 nM | – |

Source: patent US20240360165A1, “INHIBITORS OF CYCLIN DEPENDENT KINASE 7 (CDK7)” (Syros Pharmaceuticals, Inc., priority 2016, published 2024)
